Read-outs that look alike come from different tables or passages of the source.
What was measured:
5-LOX = conditions: cited from earlier work
soybean 15-LOX [1] = target: T1, soybean 15-LOX (Glycine max, UniProt P08170); experiment: In vitro soybean 15-lipoxygenase inhibition assay (spectrophotometric, linoleic acid substrate); format: biochemical; conditions: for inhibition at 100 µg/mL: read-out: % Inhibition (100 μg/mL)
T1 construct: purchased
T1 sequence (P08170 1-839): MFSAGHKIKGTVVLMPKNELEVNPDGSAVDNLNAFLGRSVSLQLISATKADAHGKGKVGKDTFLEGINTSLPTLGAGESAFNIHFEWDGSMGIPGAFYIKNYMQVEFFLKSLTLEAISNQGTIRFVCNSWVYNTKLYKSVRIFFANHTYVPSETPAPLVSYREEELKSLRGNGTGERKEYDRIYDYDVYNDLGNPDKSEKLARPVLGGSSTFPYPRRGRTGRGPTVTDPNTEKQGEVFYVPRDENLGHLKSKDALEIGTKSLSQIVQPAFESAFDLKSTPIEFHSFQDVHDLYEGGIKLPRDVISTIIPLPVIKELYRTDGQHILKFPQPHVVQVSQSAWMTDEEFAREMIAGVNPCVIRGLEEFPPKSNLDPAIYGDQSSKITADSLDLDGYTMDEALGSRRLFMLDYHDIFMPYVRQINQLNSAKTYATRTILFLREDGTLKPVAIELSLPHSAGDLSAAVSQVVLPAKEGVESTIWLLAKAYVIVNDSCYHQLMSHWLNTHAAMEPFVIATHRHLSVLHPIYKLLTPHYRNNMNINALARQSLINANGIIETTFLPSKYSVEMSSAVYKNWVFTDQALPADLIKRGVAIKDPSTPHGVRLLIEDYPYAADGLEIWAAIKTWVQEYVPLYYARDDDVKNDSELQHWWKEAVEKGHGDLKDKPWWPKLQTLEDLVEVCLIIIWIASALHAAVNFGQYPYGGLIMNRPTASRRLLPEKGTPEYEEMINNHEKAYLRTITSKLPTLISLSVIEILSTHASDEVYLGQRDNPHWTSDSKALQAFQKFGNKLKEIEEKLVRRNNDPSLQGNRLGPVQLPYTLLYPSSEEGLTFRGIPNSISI
Experimental: The target compounds (3a, 3c, 3e–g), intermediates (2a, 2c–g) and the starting material (1) were preliminary evaluated in vitro for their ability to inhibit soybean 15-LOX activity by using spectrophotometric method. Bioactivity screening for soybean 15-LOX inhibition by the target compounds was carried out at 100 μg/mL concentration. […] The bioactivities of the compounds were also compared to tHGA as the parent compound.
In vitro soybean 15-LOX inhibiting activity was measured using spectrophotometric method. In brief, sodium phosphate buffer (160 μL, 100 mM, pH 8.0), test sample (10 μL) and soybean 15-LOX (1.13.11.12) type I-B solution (20 μL, 320 U/well) were mixed and incubated for 15 min at 25 °C. The reaction was then initiated by the addition of the substrate in the form of linoleic acid (10 μL, 0.6 mM) solution. The enzymatic conversion of linoleic acid to form (9Z,11E)-(13S))-13-hydroperoxyoctadeca-9,11-dienoate end product was followed by the change of absorbance measured at 234 nm over a period for 6 min. Test samples and reference standards were dissolved in DMSO. Stock solutions were prepared at concentration 100 μg/mL for pure compounds. […] All reactions were performed in triplicate in a 96-well microtitre plate. The IC50 was calculated from the non-linear regression fitting curve of GraphPad Prism 5. The percentage of inhibition (%) can be calculated from the following formula [17]: [drawing 1] (1)

[2] = tested on: airway hyperresponsiveness to methacholine challenge; set-up: method as in PMID 21958738, PMID 22266348; conditions: compared with Zileuton; cited from earlier work
soybean 15-LOX [3] = target: T1, soybean 15-LOX; set-up: method as in PMID 16644538; conditions: initial finding; read-out: IC50 against soybean 15-LOX (earlier studies); cited from earlier work
[4] = tested on: activated macrophage cells; set-up: method as in PMID 16644538; conditions: cited from earlier work
[5] = isolated from Hypericum empetrifolium, read-out: IC50 against 5-LOX
[6] = soybean 15-LOX, read-out: IC50 Value (μM) Mean ± SEM
[7] = rounded values printed in Figure 1, read-out: 15-LOX IC50 (Figure 1)

Molecule	inhibition at 100 µg/mL (soybean 15-LOX [1]; 100 μg/mL, mean ± SEM)	IC50 (soybean 15-LOX [1]; [6])	further results
3-geranyl-1-(2'-methylbutanoyl)phloroglucinol [compound 4]	–	–	IC50 (5-LOX; [5]): 5.8 µM
CC(C)C(=O)c1c(O)cc(O)cc1O [2a, 2-Methyl-1-(2,4,6-trihydroxyphenyl)propan-1-one]	19.4 ± 5%	> 100 µM	–
CCC(=O)c1c(O)cc(O)cc1O [2c, 1-(2,4,6-Trihydroxyphenyl)propan-1-one]	–	> 100 µM	% Inhibition (100 μg/mL) (soybean 15-LOX [1]; 100 μg/mL, mean ± SEM): did not exhibit any anti-inflammatory activity
CC(C)(C)C(=O)c1c(O)cc(O)cc1O [2d, 2,2-Dimethyl-1-(2,4,6-trihydroxyphenyl)propane-1-one]	16.9 ± 1.9%	> 100 µM	–
CCCCC(=O)c1c(O)cc(O)cc1O [2e, 1-(2,4,6-Trihydroxyphenyl)pentan-1-one]	–	–	IC50 (soybean 15-LOX [1]): > 100 µM; inhibition at 100 µg/mL (soybean 15-LOX [1]): 24.5 ± 3.2%
O=C(c1c(O)cc(O)cc1O)C1CCCCC1 [2f, Cyclohexyl(2,4,6-trihydroxyphenyl)methanone]	17.5 ± 3%	> 100 µM	–
O=C(/C=C/c1ccccc1)c1c(O)cc(O)cc1O [2g, (E)-3-Phenyl-1-(2,4,6-trihydroxyphenyl)prop-2-en-1-one]	–	> 100 µM	% Inhibition (100 μg/mL) (soybean 15-LOX [1]; 100 μg/mL, mean ± SEM): did not exhibit any anti-inflammatory activity
CC(C)=CCC/C(C)=C/Cc1c(O)cc(O)c(C(=O)C(C)C)c1O [3a, 3-Geranyl-1-(2'-methylpropanoyl)phloroglucinol]	90.3 ± 4.1%	27.6 ± 3.6 µM	IC50 (5-LOX; [5]): 2.2 µM; IC50 (soybean 15-LOX [1]; [7]): 27 µM
CCC(=O)c1c(O)cc(O)c(C/C=C(\C)CCC=C(C)C)c1O [3c, (E)-1-(3-(3,7-Dimethylocta-2,6-dienyl)-2,4,6-trihydroxyphenyl)propan-1-one]	94.4 ± 3%	12.3 ± 0.6 µM	–
CCCCC(=O)c1c(O)cc(O)c(C/C=C(\C)CCC=C(C)C)c1O [3e, (E)-1-(3-(3,7-Dimethylocta-2,6-dienyl)-2,4,6-trihydroxyphenyl)pentan-1-one]	90.3 ± 4.4%	10.3 ± 1.5 µM	–
CC(C)=CCC/C(C)=C/Cc1c(O)cc(O)c(C(=O)C2CCCCC2)c1O [3f, (E)-Cyclohexyl (3-(3,7-dimethylocta-2,6-dienyl)-2,4,6-trihydroxyphenyl)-methanone]	88.8 ± 5.9%	26.3 ± 1.3 µM	–
CC(C)=CCC/C(C)=C/Cc1c(O)cc(O)c(C(=O)/C=C/c2ccccc2)c1O [3g, (E)-1-(3-((E)-3,7-Dimethylocta-2,6-dienyl)-2,4,6-trihydroxyphenyl)-3-phenylprop-2-en-1-one]	90.8 ± 7.6%	15.2 ± 1.2 µM	–
Oc1cc(O)cc(O)c1 [compound 1, phloroglucinol]	23.2 ± 2.2%	> 100 µM	–
CC(=O)c1c(O)cc(O)c(C/C=C(\C)CCC=C(C)C)c1O [tHGA, 2,4,6-trihydroxy-3-geranylacetophenone]	94.3 ± 3.4%	23.6 ± 1.7 µM	efficacy in acute murine asthma model (airway hyperresponsiveness, cellular infiltration, cytokines, cysLT, IgE) [2]: as effective as Zileuton; IC50 (5-LOX; Figure 1, read-out: 5-LOX IC50): 0.42 µM; IC50 (soybean 15-LOX [3]): 20 µM; inhibition of cysteinyl leukotriene secretion [4]: dose-dependent inhibition; IC50 (soybean 15-LOX [1]; [7]): 23 µM
